Legend:
[1] = molecular target: PERK kinase (Homo sapiens (Human), UniProt Q9NZJ5); assay: Biochemical assay for PERK (coupled pyruvate kinase/lactate dehydrogenase assay); conditions: 1 mM ATP, rate from 2-3 h time frame
How it was run: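 Coupled pyruvate kinase/lactate dehydrogenase readout of ATP hydrolysis via NADH oxidation (A340), 10 nM PERK, 0.25 mg/mL myelin basic protein, 1 mM ATP, pH 7.5 Tris/MgCl2 buffer, 1% DMSO. Absorbance followed 6 h at 30° C; rate from the 2-3 h window, normalised to no-compound and known-inhibitor controls, IC50 fitted.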

[2] = tested on: ATF4 in H929 multiple myeloma cells; assay: H929 ATF4 ELISA assay (stimulation of cellular ATF4); type: cell-based; conditions: 4 h, no thapsigargin
Description: H929 multiple myeloma cells (catalog #CRL-9068) were obtained from the American Type Culture Collection (ATTC, Manassas, VA). Briefly, cells were grown in RPMI-1640 medium supplemented with 20% heat-inactivated fetal bovine serum (catalog #A3840002, ThermoFisher Scientific, Waltham, MA), 1% Penicillin/Streptomycin/L-Glutamine (catalog #10378016, ThermoFisher Scientific, Waltham, MA), and 0.05 mM 2-mercaptoethanol (catalog #21985-023, ThermoFisher Scientific, Waltham, MA) at 37° C., 5% CO2, and 95% humidity. Cells were expanded until reaching one million five hundred thousand cells per mL at which time they were subcultured or harvested for assay use. One million five hundred thousand cells per well in 1 mL complete growth medium were dispensed into 12-well plates and incubated overnight. A serial dilution of test compound was added, and cells were incubated at 37° C., 5% CO2, and 95% for four hours. Cells were lysed then ATF4 levels were measured using an ELISA assay (Proteintech, Rosemont, IL). Absorbance is measured at 450 nm and 544 nM using a Synergy2 or equivalent reader (Biotek, Winooski VT). Data were analyzed using PRISM software (Graphpad, San Diego, CA) to calculate fold stimulation of cellular ATF4 relative to vehicle treated control.

[3] = molecular target: GCN2 kinase (Homo sapiens (Human), UniProt Q9P2K8); assay: Biochemical assay for GCN2 (TR-FRET kinase activity assay); conditions: 1 mM ATP, 3-hour incubation
Sequence of GCN2 kinase (Q9P2K8 whole entry): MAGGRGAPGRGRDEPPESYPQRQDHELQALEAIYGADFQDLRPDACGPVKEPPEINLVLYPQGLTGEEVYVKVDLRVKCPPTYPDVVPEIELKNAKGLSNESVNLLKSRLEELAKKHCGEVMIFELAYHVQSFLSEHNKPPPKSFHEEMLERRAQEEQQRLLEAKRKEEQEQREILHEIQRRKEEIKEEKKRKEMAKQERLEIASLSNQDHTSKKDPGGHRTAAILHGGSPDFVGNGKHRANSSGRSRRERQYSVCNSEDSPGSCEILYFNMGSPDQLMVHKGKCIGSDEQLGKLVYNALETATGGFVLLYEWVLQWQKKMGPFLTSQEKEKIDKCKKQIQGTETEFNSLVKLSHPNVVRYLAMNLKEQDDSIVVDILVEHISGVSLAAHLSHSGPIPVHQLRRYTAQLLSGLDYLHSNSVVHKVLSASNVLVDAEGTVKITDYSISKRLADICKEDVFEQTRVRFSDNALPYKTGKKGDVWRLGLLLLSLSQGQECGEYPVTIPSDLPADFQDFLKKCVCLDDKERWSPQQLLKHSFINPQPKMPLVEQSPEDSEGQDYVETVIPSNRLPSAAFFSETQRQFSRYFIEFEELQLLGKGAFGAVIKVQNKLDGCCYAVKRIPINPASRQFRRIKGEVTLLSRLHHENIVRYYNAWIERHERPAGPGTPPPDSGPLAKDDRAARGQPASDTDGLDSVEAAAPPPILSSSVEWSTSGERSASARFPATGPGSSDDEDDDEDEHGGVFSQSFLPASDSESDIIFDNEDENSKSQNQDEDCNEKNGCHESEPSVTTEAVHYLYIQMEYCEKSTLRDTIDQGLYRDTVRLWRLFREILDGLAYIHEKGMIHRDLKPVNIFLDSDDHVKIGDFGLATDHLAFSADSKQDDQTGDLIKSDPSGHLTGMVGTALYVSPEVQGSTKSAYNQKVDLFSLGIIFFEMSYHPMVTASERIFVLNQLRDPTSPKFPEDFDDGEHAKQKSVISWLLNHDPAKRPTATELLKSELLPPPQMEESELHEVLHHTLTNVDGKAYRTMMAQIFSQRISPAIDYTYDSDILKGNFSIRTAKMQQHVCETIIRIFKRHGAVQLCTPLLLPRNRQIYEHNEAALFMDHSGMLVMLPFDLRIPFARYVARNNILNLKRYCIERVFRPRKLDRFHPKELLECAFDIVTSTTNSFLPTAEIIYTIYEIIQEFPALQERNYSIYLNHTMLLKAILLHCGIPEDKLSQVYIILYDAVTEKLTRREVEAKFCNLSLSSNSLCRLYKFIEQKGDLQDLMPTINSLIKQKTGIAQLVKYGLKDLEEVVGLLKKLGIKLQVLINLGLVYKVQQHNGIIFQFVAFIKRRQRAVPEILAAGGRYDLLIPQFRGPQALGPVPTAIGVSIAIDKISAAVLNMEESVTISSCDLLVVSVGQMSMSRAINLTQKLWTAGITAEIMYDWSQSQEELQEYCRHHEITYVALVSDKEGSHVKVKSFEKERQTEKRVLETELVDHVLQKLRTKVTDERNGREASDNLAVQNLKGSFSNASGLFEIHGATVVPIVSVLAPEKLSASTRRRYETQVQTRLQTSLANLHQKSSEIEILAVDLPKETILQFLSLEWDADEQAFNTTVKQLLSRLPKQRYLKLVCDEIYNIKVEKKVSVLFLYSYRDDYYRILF
How it was run: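 TR-FRET assay with 2 nM GCN2, 130 nM GFP-eIF2α substrate, 0.2 mg/mL E. coli tRNA and 1 mM ATP; compounds (0.5% DMSO) reacted 3 h. Stopped with 20 mM EDTA plus 2 nM Tb-anti-peIF2α (pSer52), 60 min RT; 520/490 ratio converted to % inhibition, IC50 from four-parameter fit.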

[4] = tested on: ATF4 in CCRF-CEM leukemia cells (PERK); assay: CCRF-CEM TG ATF4 ELISA, phenotypic assay for cellular inhibition of PERK preactivated by thapsigargin; type: cell-based; conditions: Homo sapiens; Thapsigargin (1 μM) stimulated CCRF-CEM cells
[5] = tested on: phospho-GCN2 (Thr899) in HCT116 colorectal cancer cells; assay: HCT116 amino acid starved (-AA) phospho-GCN2 assay (Western blot); type: cell-based; conditions: Homo sapiens, HCT-116, 4 h, read-out: HCT116-AA pGCN2 Western Blot
Description: (§1) HCT116 colorectal cancer cells (catalog #CCL-247) were obtained from the American Type Culture Collect (ATTC, Manassas, VA). Briefly, cells were grown in RPMI 1640 supplemented with 10% heat inactivated fetal bovine serum (Invitrogen, Carlsbad, CA) and 1% Penicillin/Streptomycin/L-Glutamine at 37° C., 5% CO2, and 95% humidity. Cells were expanded until reaching 70-95% confluency at which point they were subcultured or harvested for assay use. Cells were seeded in 12-well culture plate at five hundred thousand cells per well in 1 mL complete growth medium and incubated overnight at 37° C., 5% CO2, and 95% humidity. The next day each well was replaced with 1 mL Earle's Balanced Salt Solution (EBSS, Invitrogen, Carlsbad, CA) supplemented with 10% Dialyzed Fetal Bovine Serum, 5.5 mM Glucose, 1% Penicillin/Streptomycin and 1% Vitamin solution (thermo #11120052). A serial dilution of test compound was dispensed into well. Plates were incubated for 4 h at 37° C., 5% CO2, and 95% humidity. At the end of the incubation, cells were washed with PBS supplemented with 1× Halt protease inhibitor, 1× Halt phosphatase inhibitor, 1× Sigma phosphatase inhibitor cocktail 2 and 1×EDTA and then lysed with M-PER Mammalian Protein Extraction Reagent supplemented with 3× of the inhibitor mix as described above. Cell lysates were sonicated with water bath sonicator (Qsonica, Newtown, CT) and supernatants were boiled with SDS buffer and reducing agent. Western blot was performed on each lysate to quantify phospho-GCN2 (Thr899), total GCN2, ATF4 and beta-Actin. Membranes were imaged with LI-COR Odyssey CLx Imaging System (LI-COR, Lincoln, NE). Data were analyzed using GraphPad Prism software (GraphPad, San Diego, CA) to calculate IC50 values.

[6] = tested on: CCRF-CEM leukemia cells; assay: CCRF-CEM ASNase cell proliferation assay, phenotypic assay for cellular inhibition of GCN2; type: cell-based; conditions: Homo sapiens; ASNase treated CCRF-CEM cells, 1 mU/mL ASNase, 72 h
How it was run: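 Cells were seeded at ten thousand per well in RPMI-1640 with 10% heat-inactivated FBS and treated in triplicate with serially diluted compound plus 1 mU/mL ASNase for 72 h at 37 °C, 5% CO2. Resazurin was then added for 6 h, with fluorescence read at ex 540/em 600 nm to derive IC50 values.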

[7] = tested on: ATF4 in HCT116 colorectal cancer cells; assay: HCT116 amino acid starved (-AA) ATF4 assay (Western blot); type: cell-based; conditions: Homo sapiens, HCT-116, 4 h
Description: as §1

Sequence of PERK kinase (Q9NZJ5 other isoform, or with tags, fused parts or gaps): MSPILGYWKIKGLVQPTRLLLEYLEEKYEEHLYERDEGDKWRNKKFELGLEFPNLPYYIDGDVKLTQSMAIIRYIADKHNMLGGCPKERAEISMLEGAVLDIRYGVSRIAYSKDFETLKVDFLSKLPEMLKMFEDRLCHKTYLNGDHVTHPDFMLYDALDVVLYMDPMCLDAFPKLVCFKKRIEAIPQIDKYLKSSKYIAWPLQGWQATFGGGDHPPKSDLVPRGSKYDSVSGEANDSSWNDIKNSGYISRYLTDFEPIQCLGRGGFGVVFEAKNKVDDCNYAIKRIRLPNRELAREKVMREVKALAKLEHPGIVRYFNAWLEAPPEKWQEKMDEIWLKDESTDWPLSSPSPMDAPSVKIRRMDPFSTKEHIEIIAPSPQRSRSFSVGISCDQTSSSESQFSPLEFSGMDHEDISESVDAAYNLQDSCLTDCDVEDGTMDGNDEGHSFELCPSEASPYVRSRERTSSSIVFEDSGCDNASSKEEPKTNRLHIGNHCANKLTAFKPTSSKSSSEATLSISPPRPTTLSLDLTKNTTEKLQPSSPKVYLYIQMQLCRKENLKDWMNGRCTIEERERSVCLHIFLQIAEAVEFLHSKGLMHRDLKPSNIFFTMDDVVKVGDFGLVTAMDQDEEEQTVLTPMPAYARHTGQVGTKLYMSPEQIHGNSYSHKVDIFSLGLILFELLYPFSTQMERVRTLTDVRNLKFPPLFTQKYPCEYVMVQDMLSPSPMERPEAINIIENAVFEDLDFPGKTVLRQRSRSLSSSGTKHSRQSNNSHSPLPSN

Row | SMILES | IC50 [1] | H929 NS ATF4 ELISA (fold stimulation of ATF4 relative to vehicle) [2] | IC50 [3] | IC50 [4] | IC50 [5] | IC50 [6] | IC50 [7]
1 | CNc1ncc2cc(-c3cccc(NS(=O)(=O)c4cc(Cl)cnc4OC)c3C(F)(F)F)ccc2n1 [Example 79] | 0.1 to 0.5 µM | +++ (“+++” refers to an ATF4 stim greater than 10 fold and less than or equal to 20 fold) | 0.1 to 0.5 µM |  |  |  | 
2 | COc1ncc(Cl)cc1S(=O)(=O)Nc1cc(F)cc(-c2cnc3nc(N)ncc3c2)c1 [Example 86] | 1 to 10 µM | +++ (“+++” refers to an ATF4 stim greater than 10 fold and less than or equal to 20 fold) | 1 to 10 µM |  |  |  | 
3 | COc1ncc(Cl)cc1S(=O)(=O)Nc1cc(F)cc(-c2cc3cnc(N)nc3nc2N)c1 [Example 92] | ≤ 0.1 µM |  | ≤ 0.1 µM | 1 to 10 µM | ≤ 0.1 µM | ≤ 0.1 µM | ≤ 0.1 µM
4 | COc1nc2nc(N)ncc2cc1-c1cc(F)cc(NS(=O)(=O)c2cc(Cl)cnc2OC)c1 [Example 93] | 0.1 to 0.5 µM |  | ≤ 0.1 µM | 1 to 10 µM | ≤ 0.1 µM | 0.1 to 0.5 µM | 0.1 to 0.5 µM
5 | CNc1ncc2cc(-c3cccc(NS(=O)(=O)c4cc(Cl)cnc4OC)c3C#N)c(C)nc2n1 [Example 95] | 0.1 to 0.5 µM |  | ≤ 0.1 µM | 1 to 10 µM | ≤ 0.1 µM | 0.1 to 0.5 µM | 0.1 to 0.5 µM
6 | CNc1nc2nc(N)ncc2cc1-c1cc(F)cc(NS(=O)(=O)c2cc(Cl)cnc2OC)c1 [Example 96] | 0.1 to 0.5 µM |  | ≤ 0.1 µM | 1 to 10 µM | ≤ 0.1 µM | 0.1 to 0.5 µM | 0.1 to 0.5 µM
7 | CNc1ncc2cc(-c3cccc(NS(=O)(=O)c4cc(Cl)cnc4OC)c3F)c(NCCO)nc2n1 [Example 97] | 0.1 to 0.5 µM |  | ≤ 0.1 µM | 1 to 10 µM | ≤ 0.1 µM | ≤ 0.1 µM | 0.1 to 0.5 µM
8 | CNc1ncc2cc(-c3cccc(NS(=O)(=O)c4cc(Cl)cnc4OC)c3F)c(NCCOC)nc2n1 [Example 100] | 0.1 to 0.5 µM |  | ≤ 0.1 µM | 1 to 10 µM | ≤ 0.1 µM | ≤ 0.1 µM | ≤ 0.1 µM
9 | CNc1ncc2cc(-c3cccc(NS(=O)(=O)c4cc(Cl)cc(C(=O)OC)c4Cl)c3F)c(NC)nc2n1 [Example 102] | 0.1 to 0.5 µM |  | ≤ 0.1 µM | 1 to 10 µM | ≤ 0.1 µM | ≤ 0.1 µM | ≤ 0.1 µM
10 | CNc1nc2nc(NC3CC3)ncc2cc1-c1cccc(NS(=O)(=O)c2cc(Cl)cnc2OC)c1F [Example 111] | 0.1 to 0.5 µM |  | ≤ 0.1 µM | 1 to 10 µM | 0.1 to 0.5 µM | 0.1 to 0.5 µM | ≤ 0.1 µM
11 | CNc1cc2nc(NC)c(-c3cccc(NS(=O)(=O)c4cc(Cl)cnc4OC)c3Cl)cc2cn1 [Example 113] | 0.1 to 0.5 µM |  | 0.1 to 0.5 µM | 0.5 to 1 µM | ≤ 0.1 µM | ≤ 0.1 µM | 0.1 to 0.5 µM
12 | CNc1cc2nc(NC)c(-c3cccc(NS(=O)(=O)c4cc(Cl)cnc4OC)c3F)cc2cn1 [Example 114] | ≤ 0.1 µM |  | ≤ 0.1 µM | 1 to 10 µM | ≤ 0.1 µM | ≤ 0.1 µM | 0.1 to 0.5 µM
13 | CCNc1ncc2cc(-c3cccc(NS(=O)(=O)c4cc(Cl)cnc4OC)c3F)c(NC)nc2n1 [Example 115] | ≤ 0.1 µM |  | ≤ 0.1 µM | 1 to 10 µM | ≤ 0.1 µM | ≤ 0.1 µM | ≤ 0.1 µM
14 | CNc1nc2nc(NC(C)C)ncc2cc1-c1cccc(NS(=O)(=O)c2cc(Cl)cnc2OC)c1F [Example 117] | 0.1 to 0.5 µM |  | ≤ 0.1 µM | 1 to 10 µM | 0.1 to 0.5 µM | 0.1 to 0.5 µM | 0.1 to 0.5 µM
15 | COc1ncc(Cl)cc1S(=O)(=O)Nc1cccc(-c2cc3cnc(N)cc3nc2C)c1Cl [Example 121] | ≤ 0.1 µM |  | ≤ 0.1 µM | 0.1 to 0.5 µM | ≤ 0.1 µM | ≤ 0.1 µM | ≤ 0.1 µM
16 | CNc1cc2nc(C)c(-c3cccc(NS(=O)(=O)c4cc(Cl)cnc4OC)c3Cl)cc2cn1 [Example 127] | ≤ 0.1 µM |  | ≤ 0.1 µM | 0.5 to 1 µM | ≤ 0.1 µM | ≤ 0.1 µM | ≤ 0.1 µM
17 | CNc1cc2nc(OC)c(-c3cccc(NS(=O)(=O)c4cc(Cl)cnc4OC)c3F)cc2cn1 [Example 129] | ≤ 0.1 µM |  | ≤ 0.1 µM | 1 to 10 µM | ≤ 0.1 µM | ≤ 0.1 µM | ≤ 0.1 µM
18 | CNc1ncc2cc(-c3cccc(NS(=O)(=O)c4cc(Cl)c(OC)cc4Cl)c3F)c(NC)nc2n1 [Example 132] | ≤ 0.1 µM |  | ≤ 0.1 µM | 0.5 to 1 µM | ≤ 0.1 µM | ≤ 0.1 µM | ≤ 0.1 µM
19 | COc1nc2nc(N)ncc2cc1-c1ccnc(NS(=O)(=O)c2cc(Cl)cnc2OC)c1F [Example 135] | 0.1 to 0.5 µM |  | ≤ 0.1 µM | 1 to 10 µM | 0.1 to 0.5 µM | 0.5 to 1 µM | 1 to 10 µM
20 | CNc1ncc2cc(-c3ccnc(NS(=O)(=O)c4cc(Cl)cnc4OC)c3F)c(OC)nc2n1 [Example 136] | 0.1 to 0.5 µM |  | ≤ 0.1 µM | 1 to 10 µM | ≤ 0.1 µM | 0.1 to 0.5 µM | 0.1 to 0.5 µM
21 | CNc1ncc2cc(-c3cccc(NS(=O)(=O)c4cc(Cl)cnc4NC4CC4)c3F)c(NC)nc2n1 [Example 137] | 0.1 to 0.5 µM |  | ≤ 0.1 µM | 1 to 10 µM | ≤ 0.1 µM | ≤ 0.1 µM | ≤ 0.1 µM
22 | CNc1cc2nc(C)c(-c3cc(NS(=O)(=O)c4cc(Cl)cnc4OC)cc(F)c3F)cc2cn1 [Example 143] | ≤ 0.1 µM |  | ≤ 0.1 µM | 1 to 10 µM | ≤ 0.1 µM | ≤ 0.1 µM | ≤ 0.1 µM
23 | CNc1ncc2cc(-c3cccc(NS(=O)(=O)c4cc(Cl)ccc4OC)c3F)c(NC)nc2n1 [Example 148] | ≤ 0.1 µM |  | ≤ 0.1 µM | 1 to 10 µM | ≤ 0.1 µM | ≤ 0.1 µM | ≤ 0.1 µM
24 | CNc1nc2nc(NC(C)=O)ncc2cc1-c1cccc(NS(=O)(=O)c2cc(Cl)cnc2OC)c1F [Example 158] | 0.1 to 0.5 µM |  | ≤ 0.1 µM | 1 to 10 µM | ≤ 0.1 µM | ≤ 0.1 µM | ≤ 0.1 µM
25 | Cc1nc2cc(N)ncc2cc1-c1cccc(NS(=O)(=O)c2cc(Cl)cc(CO)c2Cl)c1F [Example 174] |  | +++ (“+++” refers to an ATF4 stim greater than 10 fold and less than or equal to 20 fold) |  | ≤ 0.1 µM |  | ≤ 0.1 µM | 

Source: patent US11912668B2, “GCN2 and perk kinase inhibitors and methods of use thereof” (Deciphera Pharmaceuticals, LLC, priority 2020, dated 2024)
